Reference: patent US8765733B2, “Amine substituted methanesulfonamide derivatives as vanilloid receptor ligands” (Gruenenthal GmbH, priority 2011, dated 2014)

Target: vanilloid receptor 1 (VR1/TRPV1 receptor) (Homo sapiens, UniProt Q8NER1)
Assay: FLIPR functional assay (Ca2+ influx, capsaicin) on the vanilloid receptor 1
Assay type: cell-based
Conditions: capsaicin (Cap) stimulus; for inhibition at 5 µM: compound at 5 μM, read-out: inhibition (as a percentage) Cap, (human being); for Ki: functional (f), Ki from IC50 by Cheng-Prusoff, read-out: (f) Ki (human being) [nM] Cap

SMILES	inhibition at 5 µM [%]	Ki [nM]
CS(=O)(=O)NCc1ccc(NC(=O)NCc2ccc(C(F)(F)F)nc2N2CCCC2)cc1 [Example 4, N-(4-(3-((2-(pyrrolidin-1-yl)-6-(trifluoromethyl)pyridin-3-yl)methyl)ureido)benzyl)methanesulfonamide]		26
CCNc1nc(C(F)(F)F)ccc1CNC(=O)C(C)c1ccc(CNS(C)(=O)=O)c(F)c1 (centres unmarked) [Example 8, N-((2-(ethylamino)-6-(trifluoromethyl)pyridin-3-yl)methyl)-2-(3-fluoro-4-(methylsulfonamidomethyl)phenyl)propanamide]	71	
CCCCNc1nc(C(F)(F)F)ccc1CNC(=O)C(C)c1ccc(CNS(C)(=O)=O)c(F)c1 (centres unmarked) [Example 9, N-((2-(butylamino)-6-(trifluoromethyl)pyridin-3-yl)methyl)-2-(3-fluoro-4-(methylsulfonamidomethyl)phenyl)propanamide]		95
COC1CN(c2nc(C(F)(F)F)ccc2CNC(=O)C(C)c2ccc(CNS(C)(=O)=O)c(F)c2)C1 (centres unmarked) [Example 14, 2-(3-fluoro-4-(methylsulfonamidomethyl)phenyl)-N-((2-(3-methoxyazetidin-1-yl)-6-(trifluoromethyl)pyridin-3-yl)methyl)propanamide]	46	
CC(C(=O)NCc1ccc(C(F)(F)F)nc1N1CCCCC1)c1ccc(CNS(C)(=O)=O)c(F)c1 (centres unmarked) [Example 21, 2-(3-fluoro-4-(methylsulfonamidomethyl)phenyl)-N-((2-(piperidin-1-yl)-6-(trifluoromethyl)pyridin-3-yl)methyl)propanamide]		5
CC1CCN(c2cc(C(F)(F)F)ccc2CNC(=O)C(C)c2ccc(CNS(C)(=O)=O)c(F)c2)CC1 (centres unmarked) [Example 29, 2-(3-fluoro-4-(methylsulfonamidomethyl)phenyl)-N-(2-(4-methylpiperidin-1-yl)-4-(trifluoromethyl)benzyl)propanamide]		5
CC(C(=O)NCc1ccc(C(F)(F)F)nc1N1CCC(c2ccccc2)(N(C)C)CC1)c1ccc(CNS(C)(=O)=O)c(F)c1 (centres unmarked) [Example 34, N-((2-(4-(dimethylamino)-4-phenylpiperidin-1-yl)-6-(trifluoromethyl)pyridin-3-yl)methyl)-2-(3-fluoro-4-(methylsulfonamidomethyl)phenyl)propanamide]		61
CC(C(=O)NCc1ccc(C(F)(F)F)nc1N1CCOCC1)c1ccc(CNS(C)(=O)=O)c(F)c1 (centres unmarked) [Example 35, 2-(3-fluoro-4-(methylsulfonamidomethyl)phenyl)-N-((2-morpholino-6-(trifluoromethyl)pyridin-3-yl)methyl)propanamide]	53	
COc1cc(NC(=O)NCc2ccc(C(F)(F)F)nc2N2CCC(C)CC2)ccc1CNS(C)(=O)=O [Example 49, N-(2-methoxy-4-(3-((2-(4-methylpiperidin-1-yl)-6-(trifluoromethyl)pyridin-3-yl)methyl)ureido)benzyl)methanesulfonamide]		12
Cc1cc(NC(=O)NCc2ccc(C(F)(F)F)nc2N2CCCC2)ccc1CNS(C)(=O)=O [Example 52, N-(2-methyl-4-(3-((2-(pyrrolidin-1-yl)-6-(trifluoromethyl)pyridin-3-yl)methyl)ureido)benzyl)methanesulfonamide]		46

The next lines start with the values.

inhibition at 5 µM [%]	Ki [nM]	SMILES
48		CC(C(=O)NCc1ccc(C(F)(F)F)nc1N1CCCC1)c1cccc(CNS(C)(=O)=O)c1 (centres unmarked) [Example 2, 2-(3-(methylsulfonamidomethyl)phenyl)-N-((2-(pyrrolidin-1-yl)-6-(trifluoromethyl)pyridin-3-yl)methyl)propanamide]
	4	CC1CCN(c2nc(C(F)(F)F)ccc2CNC(=O)Nc2ccc(CNS(C)(=O)=O)cc2)CC1 [Example 5, N-(4-(3-((2-(4-methylpiperidin-1-yl)-6-(trifluoromethyl)pyridin-3-yl)methyl)ureido)benzyl)methanesulfonamide]
	11	CC1CCN(c2nc(C(F)(F)F)ccc2CNC(=O)C(C)c2ccc(CNS(C)(=O)=O)cc2)CC1 (centres unmarked) [Example 6, N-((2-(4-methylpiperidin-1-yl)-6-(trifluoromethyl)pyridin-3-yl)methyl)-2-(4-(methylsulfonamidomethyl)phenyl)propanamide]
	23	CC(C(=O)NCc1ccc(C(F)(F)F)nc1N1CCCC1)c1ccc(CNS(C)(=O)=O)c(F)c1 (centres unmarked) [Example 17, 2-(3-fluoro-4-(methylsulfonamidomethyl)phenyl)-N-((2-(pyrrolidin-1-yl)-6-(trifluoromethyl)pyridin-3-yl)methyl)propanamide]
	5	CC1CCN(c2nc(C(F)(F)F)ccc2CNC(=O)Nc2ccc(CNS(C)(=O)=O)c(F)c2)CC1 [Example 24, N-(2-fluoro-4-(3-((2-(4-methylpiperidin-1-yl)-6-(trifluoromethyl)pyridin-3-yl)methyl)ureido)benzyl)methanesulfonamide]
	4	CC1CCN(c2nc(C(F)(F)F)ccc2CNC(=O)Cc2ccc(CNS(C)(=O)=O)c(F)c2)CC1 [Example 25]
	5	CC1CCN(c2nc(C(C)(C)C)ccc2CNC(=O)C(C)c2ccc(CNS(C)(=O)=O)c(F)c2)CC1 (centres unmarked) [Example 28, N-((6-tert-butyl-2-(4-methylpiperidin-1-yl)pyridin-3-yl)methyl)-2-(3-fluoro-4-(methylsulfonamidomethyl)phenyl)propanamide]
	8	CC1CCN(c2nc(C(F)(F)F)ccc2CNC(=O)C(C)c2ccc(CNS(C)(=O)=O)c(F)c2)CC1 (centres unmarked) [Example 30, 2-(3-fluoro-4-(methylsulfonamidomethyl)phenyl)-N-((2-(4-methylpiperidin-1-yl)-6-(trifluoromethyl)pyridin-3-yl)methyl)propanamide]
	80	CC(C(=O)NCc1ccc(C(F)(F)F)nc1N1CCCC1)c1ccc(CNS(C)(=O)=O)c(Cl)c1 (centres unmarked) [Example 45, 2-(3-chloro-4-(methylsulfonamidomethyl)phenyl)-N-((2-(pyrrolidin-1-yl)-6-(trifluoromethyl)pyridin-3-yl)methyl)propanamide]
	5	CC1CCN(c2nc(C(F)(F)F)ccc2CNC(=O)C(C)c2ccc(CNS(C)(=O)=O)c(Cl)c2)CC1 (centres unmarked) [Example 46, 2-(3-chloro-4-(methylsulfonamidomethyl)phenyl)-N-((2-(4-methylpiperidin-1-yl)-6-(trifluoromethyl)pyridin-3-yl)methyl)propanamide]
	6	CC1CCN(c2nc(C(F)(F)F)ccc2CNC(=O)Nc2ccc(CNS(C)(=O)=O)c(O)c2)CC1 [Example 47, N-(2-hydroxy-4-(3-((2-(4-methylpiperidin-1-yl)-6-(trifluoromethyl)pyridin-3-yl)methyl)ureido)benzyl)methanesulfonamide]
	87	COc1cc(C(C)C(=O)NCc2ccc(C(F)(F)F)nc2N2CCCC2)ccc1CNS(C)(=O)=O (centres unmarked) [Example 48, 2-(3-methoxy-4-(methylsulfonamidomethyl)phenyl)-N-((2-(pyrrolidin-1-yl)-6-(trifluoromethyl)pyridin-3-yl)methyl)propanamide]
	5	Cc1cc(NC(=O)NCc2ccc(C(F)(F)F)nc2N2CCC(C)CC2)ccc1CNS(C)(=O)=O [Example 53, N-(2-methyl-4-(3-((2-(4-methylpiperidin-1-yl)-6-(trifluoromethyl)pyridin-3-yl)methyl)ureido)benzyl)methanesulfonamide]
